system: pERK in NCI-H358 cells; experiment: Cell-based pERK HTRF assay (pERK inhibition in H358 cells); conditions: Homo sapiens, NCI-H358, 0.5 h, pERK inhibition IC50, NCI-H358 cells, 30 min incubation; read-out: PERK in H358 cell
Experimental: On Day 1, cells (NCI-H358) were seeded into 96-well plates at 4×10^4 cells/well in complete growth media (RPMI, 10% FBS).
The source plate was created with compounds diluted in media at 5-fold the final assay concentration. […] 20 μL was transferred onto the cell plates (final volume in wells was 100 μL). Plates were harvested after 30 min incubation by aspirating media and adding kit-supplied 1× supplemented lysis buffer to all wells (75 μl per well). Plates were then placed on a plate shaker and incubated at 850 rpm for an additional 30 min.
Antibody mixture solution was prepared by diluting aliquoted d2 and Eu Cryptate antibodies 1:20 in kit supplied detection buffer, then mixed the diluted antibodies solutions (1:1 v:v).
Samples were homogenized by pipetting up and down and then transferred (16 μL of cell lysates) from the 96-well cell culture plate to two wells of the HTRF 384-well detection plate containing the antibody solution. Plates were centrifuged (524 g for 1 min) and allowed to incubate between 4 and 24 h at room temperature. Maximum signal is reached after 4 h incubation time and remains stable over a period of 24 hours. Therefore, readings can be made between 4 and 24 h of incubation.

SMILES	IC50 [nM]
C=CC(=O)N1CC[C@@H](N(C)c2nc(OCC3(CN4CC[C@@H](F)C4)CC3)nc3c(F)c(-c4ccc(F)c5sc(N)nc45)c(C(F)(F)F)cc23)C1 [Compound 288]	< 100
C=CC(=O)N1C[C@H](C)N(c2nc(OC[C@@H]3CC4(CC4)CN3C)nc3c(F)c(-c4ccc(F)c5sc(N)c(C#N)c45)c(C(F)(F)F)cc23)C[C@H]1C [Compound 410, 4-(4-((2S,5R)-4-acryloyl-2,5-dimethylpiperazin-1-yl)-8-fluoro-2-(((S)-5-methyl-5-azaspiro[2.4]heptan-6-yl)methoxy)-6-(trifluoromethyl)quinazolin-7-yl)-2-amino-7-fluorobenzo[b]thiophene-3-carbonitrile]	< 100
C=CC(=O)N1CC(Nc2ncnc3c(F)c(-c4ccc(F)c5sc(N)nc45)cc(OC)c23)C1 [Compound 69, 1-(3-((7-(2-amino-7-fluorobenzo[d]thiazol-4-yl)-8-fluoro-5-methoxyquinazolin-4-yl)amino)azetidin-1-yl)prop-2-en-1-one]	> 1000
C=CC(=O)N1CC[C@@H](N(C)c2nc(OC[C@@]34CCCN3C[C@H](F)C4)nc3c(F)c(-c4ccc(F)c5sc(N)c(C#N)c45)c(C(F)(F)F)cc23)C1 [Compound 253]	< 100
C=CC(=O)N1CCC(N(C)c2nc(OC[C@@H]3CCCN3C)nc3c(F)c(-c4ccc(F)c5sc(N)c(C#N)c45)ccc23)[C@H]1C (some centres unmarked) [Compound 420]	< 100
C=CC(=O)N1CCC(N(C)c2nc(OC[C@@]34CCCN3C[C@H](F)C4)nc3cc(-c4ccc(F)c5sc(N)c(C#N)c45)ccc23)[C@H]1COC (stereo partly drawn) [Compound 389, 4-(4-((1-acryloyl-2-(methoxymethyl)pyrrolidin-3-yl)(methyl)amino)-2-(((2R,7aS)-2-fluorotetrahydro-1H-pyrrolizin-7a(5H)-yl)methoxy)quinazolin-7-yl)-2-amino-7-fluorobenzo[b]thiophene-3-carbonitrile]	< 100
C=CC(=O)N1C[C@@H](F)[C@@H](N(CC)c2nc(OC[C@@]34CCCN3C[C@H](F)C4)nc3cc(-c4ccc(F)c5sc(N)c(C#N)c45)c(C(F)(F)F)cc23)C1 [Compound 375]	< 100
C=CC(=O)N1CC[C@@H](N(C)c2nc(OCC34CCCN3CCC4)nc3c(F)c(-c4cc(O)cc5ccccc45)c(C(F)(F)F)cc23)C1 [Compound 226]	100 to 1000
C=CC(=O)N1C[C@H](N(C)c2nc(OC[C@@]34CCCN3C[C@H](F)C4)nc3c(F)c(-c4ccc(F)c5sc(N)nc45)c(C(F)(F)F)cc23)C2(CC2)C1 [Compound 294]	< 100
C=CC(=O)N1CC(Nc2nc(OCC34CCCN3CCC4)nc3c(F)c(-c4ccc(F)c5sc(N)nc45)c(Cl)cc23)[C@H]1C (some centres unmarked) [Compound 213]	> 1000
C=CC(=O)N1CC[C@@H](N(C)c2nc(OC[C@@]34CCCN3C[C@H](F)C4)nc3cc(-c4c(F)cc(F)c5sc(N)nc45)c(C(F)(F)F)cc23)C1 [Compound 305]	< 100
C=CC(=O)N1CCC(N(C)c2nc(OC[C@@H]3C[C@@H](OC)CN3C)nc3c(F)c(-c4ccc(F)c5sc(N)c(C#N)c45)c(C(F)(F)F)cc23)[C@H]1COC (some centres unmarked) [Compound 454]	< 100
C=CC(=O)N1C[C@H](C)N(c2nc(OC[C@]34CCCN3C[C@H](F)C4)nc3c(F)c(-c4ccc(F)c5sc(N)nc45)c(C(F)(F)F)cc23)C[C@H]1C [Compound 204, 1-((2R,5S)-4-(7-(2-amino-7-fluorobenzo[d]thiazol-4-yl)-8-fluoro-2-(((2R,7aR)-2-fluorotetrahydro-1H-pyrrolizin-7a(5H)-yl)methoxy)-6-(trifluoromethyl)quinazolin-4-yl)-2,5-dimethylpiperazin-1-yl)prop-2-en-1-one]	< 100

Results, then the compound that gave them:

IC50 [nM]	SMILES
< 100	C=C(F)C(=O)N1CC[C@@H](N(C)c2nc(OC[C@@]34CCCN3C[C@H](F)C4)nc3c(F)c(-c4ccc(F)c5sc(N)nc45)c(C(F)(F)F)cc23)C1 [Compound 308]
< 100	C=CC(=O)N1C[C@@H](F)[C@@H](N(C)c2nc(OC[C@@]34CCCN3C[C@H](F)C4)nc3c(F)c(-c4ccc(F)c5sc(N)c(C#N)c45)c(Cl)cc23)C1 [Compound 365]
< 100	C=CC(=O)N1[C@H](C)CN(c2nc(OC[C@]34CCCN3C[C@H](F)C4)nc3c(F)c(-c4ccc(F)c5sc(N)nc45)c(C(F)(F)F)cc23)C[C@@H]1C [Compound 215]
< 100	C=CC(=O)N1C[C@H](F)[C@@H](N(C)c2nc(OC[C@@]34CCCN3C[C@H](F)C4)nc3c(F)c(-c4ccc(F)c5sc(N)c(C#N)c45)c(C(F)(F)F)cc23)C1 [Compound 327]
< 100	CC#CC(=O)N1CCN(c2nc(OC[C@]34CCCN3C[C@H](F)C4)nc3c(F)c(-c4ccc(F)c5sc(N)nc45)c(C(F)(F)F)cc23)CC1 [Compound 149]
100 to 1000	C=CC(=O)N1CCC(N(CC)c2nc(OC[C@@H]3C[C@@H](F)CN3C)nc3cc(-c4ccc(F)c5sc(N)c(C#N)c45)c(C#N)cc23)[C@H]1COC (some centres unmarked) [Compound 471]
> 1000	CC#CC(=O)N1CC[C@@H]2[C@H]1CN2c1nc(OCC23CCCN2CCC3)nc2c(F)c(-c3ccc(F)c4sc(N)nc34)c(Cl)cc12 [Compound 118]
100 to 1000	C=CC(=O)N1C[C@@H](C)[C@@H](N(C)c2nc(OC[C@@]34CCCN3C[C@H](F)C4)nc3c(F)c(-c4ccc(F)c5sc(N)nc45)c(C(F)(F)F)cc23)C1 [Compound 292]
< 100	C=CC(=O)N1CCN(c2nc(OC[C@@]34CCCN3C[C@@H](F)C4)nc3c(F)c(-c4ccc(F)c5sc(N)nc45)c(C(F)(F)F)cc23)C[C@H]1C [Compound 220]
> 1000	C=CC(=O)N1CC(N(c2nc(OCC34CCCN3CCC4)nc3c(F)c(-c4ccc(F)c5sc(N)nc45)c(C(F)(F)F)cc23)C2CC2)C1 [Compound 152]
100 to 1000	C=C(F)C(=O)N1CCN(c2nc(OC[C@@]34CCCN3C[C@H](F)C4)nc3c(F)c(-c4ccc(F)c5sc(N)nc45)c(C(F)(F)F)cc23)C[C@H]1C [Compound 208]
< 100	C=CC(=O)N1C[C@@H](F)[C@@H](N(C)c2nc(OC[C@@]34CCCN3C[C@H](F)C4)nc3c(F)c(-c4ccc(F)c5sc(N)nc45)c(C(F)(F)F)cc23)C1 [Compound 279]
< 100	C=CC(=O)N1C[C@H](C)N(c2nc(OC[C@@]34CCCN3C[C@H](F)C4)nc3c(F)c(-c4ccc(F)c5sc(N)nc45)c(OC(F)F)cc23)C[C@H]1C [Compound 280]
100 to 1000	C=CC(=O)N1CCC(N(C)c2nc(OC[C@@H]3CC4(CC4)CN3C)nc3c(F)c(-c4ccc(F)c5sc(N)c(C#N)c45)c(Cl)cc23)[C@H]1C (some centres unmarked) [Compound 448]

same assay, conditions: pERK inhibition IC50, NCI-H358 cells, 30 min incubation; read-out: PERK in H358 cell

IC50 [nM]	SMILES
> 1000	C=CC(=O)N1CC[C@@H](N(C)c2nc(OC[C@@H]3CC(F)(F)CN3C)nc3c(F)c(-c4ccc(F)c5sc(N)nc45)c(C(F)(F)F)cc23)C1 (atropisomer, axis not shown) [Compound 229]
> 1000	C=CC(=O)N1CC[C@@H](N(C)c2nc(OC[C@@]34CCCN3C[C@H](F)C4)nc3c(F)c(-c4ccc(F)c5sc(N)c(C#N)c45)c(C(F)(F)F)cc23)[C@H]1C (single isomer, unassigned) [Compound 435]
